# Measurements: paper PMC8607231, “Generation of KS-133 as a Novel Bicyclic Peptide with a Potent and Selective VIPR2 Antagonist Activity that Counteracts Cognitive Decline in a Mouse Model of Psychiatric Disorders” (Frontiers in Pharmacology, 2021)
# Where a SMILES comes first, the peptide text is derived from it. Bridges are numbered along the chain shown (N, C = ends).
# Tests used:
# [1] = Peptide stability in rat plasma (RP-HPLC); assay type: in vitro ADME
# Method: Each peptide (10 mM, 1 μl) was incubated with rat plasma (20 μl) prepared in-house. Immediately after mixing with plasma and after 24 h of incubation at 37°C, 80% acetonitrile (200 μl) was added to extract VIpep-3 and acetonitrile (200 μl) was added to extract KS-132, KS-133(monocyclic), and KS-133. The mixture was stored for 10 min on ice and then centrifuged at 20,000 × g for 10 min at 4°C. The supernatant was recovered and directly applied to RP-HPLC to determine the remaining amount of unmodified peptides in the sample.
# The stability of peptides was evaluated in rat plasma. A peptide was incubated in rat plasma at 37°C for 0 and 24 h and the remaining amount of peptide was determined by RP-HPLC. By comparison with the peak area of the peptide, the remaining amount of the peptide after plasma incubation was estimated. […] KS-133(monocyclic) may form a pseudo bicyclic structure by ionic bond interaction between side chains of Lys and Asp.
# [2] = test system: prefrontal pyramidal neurons; test: Golgi-Cox dendritic morphology and Sholl analysis of prefrontal cortex neurons; assay type: in vivo, mouse
# Method: For behavioral experiments, all litters were randomly divided into Ro 25-1553- and PBS-treated groups. From P1 to P14, mice were injected s.c. once daily with Ro 25-1553 at a dose of 0.07 nmol/g ([Ago et al., 2015]). Mice treated with PBS from P1 to P14 were used as the control. KS-133 or the vehicle was simultaneously injected with Ro 25-1553 or PBS. Animals were weaned at P21 and divided by gender at P28. We used male mice exclusively to minimize any potential variability due to sex-specific effects on behavioral performance. […]
# Dendritic morphological analysis was performed on mice after the novel object recognition test and samples were collected within 10 min of dissection. […] Morphologies of apical and basal dendrites were quantified in three dimensions using the Neurolucida neuron tracing system (MBF Bioscience, Williston, VT) with the experimenter blinded to the treatment. […]
# FIGURE 6 Alterations in the dendritic morphology of prefrontal pyramidal neurons in mice treated with Ro 25-1553 and KS-133 during the early postnatal period. […] The number of intersections of dendrites with 7.5-μm concentric spheres centered on the soma was measured by Sholl analysis. Results are expressed as the mean ± S.E.M. of 40 neurons from five mice per group. *p < 0.05, **p < 0.01, ***p < 0.001.
# [3] = rat plasma, immediately after mixing
smiles,measurement,setting,value
"CC[C@H](C)[C@H](NC(=O)[C@H](CC(C)C)NC(=O)[C@@H]1CC(=O)NCCCC[C@@H]2NC(=O)[C@@H]3CCCN3C(=O)[C@H](CC(C)C)NC(=O)[C@H](Cc3ccc(O)cc3)NC(=O)[C@@H]3CCCN3C(=O)[C@@H]3CCCN3C(=O)[C@@H](NC(C)=O)CSSC[C@H](NC(=O)[C@H](CC(C)C)NC(=O)[C@H](Cc3ccc(O)cc3)NC2=O)C(=O)N1)C(N)=O [KS-133, Ac-c[Cys-Pro-Pro-Tyr-Leu-Pro-c(Lys-Tyr-Leu-Cys]-Asp)-Leu-Ile-NH2] (Ac-CPPYLPKYLCDLI-NH2; disulfide 1-10; lactam 7-11)",Stability in rat plasma,"[1]; 37°C, 24 h",highly stable for at least up to 24 h
same,"RP-HPLC peak area, Input (NT)",[1]; no plasma treatment,161695
same,"RP-HPLC peak area, incubation time 24 h","[1]; rat plasma, 37°C, 24 h",163537
same,"remaining at 24 h, 0.476 mM","[1]; rat plasma, 37°C, 24 h, read-out: Residual rate, incubation time 24 h",99%
same,"RP-HPLC peak area, immediately after mixing",[1]; [3],165254
same,"Residual rate, immediately after mixing",[1]; [3],100%
same,"Effect on Ro 25-1553-induced changes in soma size, branch number and dendrite length","[2]; KS-133 simultaneously with Ro 25-1553, P1-14",counteracted
same,"Sholl analysis, effect on Ro 25-1553-induced morphological abnormalities of apical and basal dendrites","[2]; KS-133 with Ro 25-1553, prefrontal cortex",prevented the morphological abnormalities
